# Measured values from patent US6849648B2, “Phenylene alkyne matrix metalloproteinase inhibitors” (Warner-Lambert Company, priority 2001, dated 2005).
# Read-outs that look alike come from different tables or passages of the source.
# Experiments:
# [1] = target: MMP-13CD (catalytic domain of collagenase 3) (Homo sapiens, UniProt P45452); assay: Thiopeptolide hydrolysis assay, catalytic domain of collagenase 3; format: biochemical
# Description: (§1) The assays measure the amount by which a test compound reduces the hydrolysis of a thiopeptolide substrate caused by a matrix metalloproteinase enzyme. Such assays are described in detail by Ye et al., in Biochemistry, 1992;31(45):11231-11235, which is incorporated herein by reference.
# (§2) Thiopeptolide substrates show virtually no decomposition or hydrolysis in the absence of a matrix metalloproteinase enzyme. A typical thiopeptolide substrate commonly utilized for assays is Ac-Pro-Leu-Gly-thioester-Leu-Leu-Gly-OEt. A 100 μL assay mixture will contain 50 mM of 2-morpholinoethane sulfonic acid monohydrate (MES, pH 6.0) 10 mM CaCl2, 100 μM thiopeptolide substrate, and 1 mM 5,5′-dithio-bis-(2-nitro-benzoic acid) (DTNB). The thiopeptolide substrate concentration is varied from 10 to 800 μM to obtain Km and Kcat values. The change in absorbance at 405 nm is monitored on a Thermo Max microplate reader (molecular Devices, Menlo Park, Calif.) at room temperature (22° C.). The calculation of the amount of hydrolysis of the thiopeptolide substrate is based on E412=13600 m^−1 cm^−1 for the DTNB-derived product 3-carboxy-4-nitrothiophenoxide. Assays are carried out with and without matrix metalloproteinase inhibitor compounds, and the amount of hydrolysis is compared for a determination of inhibitory activity of the test compounds.
# (§3) Several representative compounds have been evaluated for their ability to inhibit various matrix metalloproteinase enzymes. Table 1 below presents inhibitory activity as IC50's in micromolar for representative invention compounds. In the table, MMP-1FL refers to full length interstitial collagenase; MMP-2FL refers to full length Gelatinase A; MMP-3CD refers to the catalytic domain of stromelysin; MMP-7FL refers to full length matrilysin; MMP-9FL refers to full length Gelatinase B; MMP-13CD refers to the catalytic domain of collagenase 3; and MMP-14CD refers to the catalytic domain of MMP-14. Test compounds were evaluated at various concentrations in order to determine their respective IC50 values, the micromolar concentration of compound required to cause a 50% inhibition of the hydrolytic activity of the respective enzyme.
# [2] = target: MMP-3CD (catalytic domain of stromelysin) (Homo sapiens, UniProt P08254); assay: Thiopeptolide hydrolysis assay, catalytic domain of stromelysin; format: biochemical; conditions: Table 3; MMP03 catalytic domain
# MMP-3CD (catalytic domain of stromelysin), sequence (P08254 100-272 limits assumed): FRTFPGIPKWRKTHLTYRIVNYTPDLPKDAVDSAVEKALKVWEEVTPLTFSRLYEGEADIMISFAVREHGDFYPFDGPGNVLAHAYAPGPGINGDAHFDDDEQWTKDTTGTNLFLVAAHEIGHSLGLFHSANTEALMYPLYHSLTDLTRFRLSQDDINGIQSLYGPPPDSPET
# Description: as §1, §2, §3
# [3] = target: MMP-14CD (catalytic domain of MMP-14) (Homo sapiens, UniProt P50281); assay: Thiopeptolide hydrolysis assay, catalytic domain of MMP-14; format: biochemical; conditions: Table 3; MMP-14 catalytic domain; read-out: IC50 (μM) MMP14 (CD)
# Description: as §1, §2, §3
# [4] = target: MMP-9FL (full length Gelatinase B) (Homo sapiens, UniProt P14780); assay: Thiopeptolide hydrolysis assay, full length Gelatinase B; format: biochemical; conditions: Table 3; full-length MMP09
# MMP-9FL (full length Gelatinase B), sequence (P14780 94-707, species assumed): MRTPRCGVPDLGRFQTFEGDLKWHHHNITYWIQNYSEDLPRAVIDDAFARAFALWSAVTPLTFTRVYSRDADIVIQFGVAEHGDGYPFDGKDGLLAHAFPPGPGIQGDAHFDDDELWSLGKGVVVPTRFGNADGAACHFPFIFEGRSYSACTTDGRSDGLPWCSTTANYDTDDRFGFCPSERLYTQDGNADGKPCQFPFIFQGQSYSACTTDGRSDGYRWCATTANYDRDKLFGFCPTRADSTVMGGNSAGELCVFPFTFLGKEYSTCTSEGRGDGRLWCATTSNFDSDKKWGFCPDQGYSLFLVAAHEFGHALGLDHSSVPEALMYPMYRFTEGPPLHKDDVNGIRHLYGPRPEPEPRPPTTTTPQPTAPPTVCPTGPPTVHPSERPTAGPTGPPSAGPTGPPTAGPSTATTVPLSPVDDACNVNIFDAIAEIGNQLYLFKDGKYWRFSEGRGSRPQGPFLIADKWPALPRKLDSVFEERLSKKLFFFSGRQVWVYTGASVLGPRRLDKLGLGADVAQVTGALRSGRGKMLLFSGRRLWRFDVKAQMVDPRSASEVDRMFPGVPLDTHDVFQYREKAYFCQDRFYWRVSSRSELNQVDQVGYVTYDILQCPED
# Description: as §1, §2, §3
# [5] = target: T1, MMP-2FL (full length Gelatinase A) (Homo sapiens, UniProt P08253); assay: Thiopeptolide hydrolysis assay, full length Gelatinase A; format: biochemical; conditions: Table 3; full-length MMP02
# T1 sequence (P08253 110-660): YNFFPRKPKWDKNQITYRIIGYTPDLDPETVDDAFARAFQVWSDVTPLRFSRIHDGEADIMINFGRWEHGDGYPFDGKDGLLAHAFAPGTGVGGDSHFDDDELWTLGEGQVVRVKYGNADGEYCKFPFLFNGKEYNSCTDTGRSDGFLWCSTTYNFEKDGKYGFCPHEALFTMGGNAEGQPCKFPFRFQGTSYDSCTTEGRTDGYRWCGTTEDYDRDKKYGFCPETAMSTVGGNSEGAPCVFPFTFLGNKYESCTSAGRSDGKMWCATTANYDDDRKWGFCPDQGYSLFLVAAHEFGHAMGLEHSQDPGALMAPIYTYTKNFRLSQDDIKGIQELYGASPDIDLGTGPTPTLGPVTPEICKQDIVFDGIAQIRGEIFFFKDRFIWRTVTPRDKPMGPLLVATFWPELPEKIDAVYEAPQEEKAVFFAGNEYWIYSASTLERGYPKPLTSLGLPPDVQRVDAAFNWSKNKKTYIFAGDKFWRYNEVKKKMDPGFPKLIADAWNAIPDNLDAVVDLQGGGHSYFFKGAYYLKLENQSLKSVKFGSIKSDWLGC
# Description: as §1, §2, §3
# [6] = target: T2, MMP-1FL (full length interstitial collagenase) (Homo sapiens, UniProt P03956); assay: Thiopeptolide hydrolysis assay, full length interstitial collagenase; format: biochemical; conditions: Table 3; full-length MMP01
# T2 sequence (P03956 100-469): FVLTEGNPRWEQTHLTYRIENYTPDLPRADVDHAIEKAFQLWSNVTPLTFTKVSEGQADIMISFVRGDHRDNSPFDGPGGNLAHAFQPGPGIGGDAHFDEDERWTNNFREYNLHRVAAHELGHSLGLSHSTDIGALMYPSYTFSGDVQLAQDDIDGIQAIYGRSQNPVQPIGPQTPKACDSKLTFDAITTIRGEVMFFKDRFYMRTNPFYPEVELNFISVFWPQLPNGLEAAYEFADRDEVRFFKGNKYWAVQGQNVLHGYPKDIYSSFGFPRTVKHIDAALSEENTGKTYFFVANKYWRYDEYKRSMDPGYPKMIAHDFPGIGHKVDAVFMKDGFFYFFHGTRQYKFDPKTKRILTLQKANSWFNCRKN
# Description: as §1, §2, §3
# [7] = target: T3, MMP-7FL (full length matrilysin) (Homo sapiens, UniProt P09237); assay: Thiopeptolide hydrolysis assay, full length matrilysin; format: biochemical; conditions: Table 3; full-length MMP07
# T3 sequence (P09237 95-267): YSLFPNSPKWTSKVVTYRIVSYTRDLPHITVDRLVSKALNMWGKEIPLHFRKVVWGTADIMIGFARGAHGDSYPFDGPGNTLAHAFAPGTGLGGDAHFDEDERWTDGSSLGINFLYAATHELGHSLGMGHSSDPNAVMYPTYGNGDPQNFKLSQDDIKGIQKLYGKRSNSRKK
# Description: as §1, §2, §3
# [8] = Table 2, thiopeptolide substrate, read-out: MMP-13CD (IC50)
# [9] = Table 3, MMP-13 catalytic domain, read-out: IC50 (μM) MMP13 (CD)
# [10] = Table 1, thiopeptolide substrate, read-out: IC50 (μM) Versus MMPs, MMP13 (CD)
smiles,measurement,setting,value
"N#Cc1ccc(CNC(=O)c2cccc(C#CCn3cncn3)c2)cc1 [Example 5, N-(4-Cyano-benzyl)-3-(3-[1,2,4]-triazol-1-yl-prop-1-ynyl)-benzamide]",IC50,[1]; [8],66 µM
"COc1ccc(CN2C(=O)Nc3ccc(C#CCc4ccccc4)cc3S2(=O)=O)cc1 [Example 18, 2-(4-Methoxy-benzyl)-1,1-dioxo-7-(3-phenyl-prop-1-ynyl)-1,4-dihydro-2H, 1λ^6-benzo[1,2,4]thiadiazin-3-one]",IC50,[2],> 30 µM
same,IC50,[1]; [9],0.185 µM
same,IC50,[3],> 30 µM
same,IC50,[4],> 30 µM
same,IC50,[5],> 30 µM
same,IC50,[6],> 30 µM
same,IC50,[7],> 10 µM
O=C(O)c1ccc(CNC(=O)c2cccc(C#CCc3ccccc3)c2)cc1 [Example 6],IC50,[1]; [8],0.029 µM
"O=C(O)c1ccc(CN2C(=O)Nc3ccc(C#CCc4ccccc4)cc3S2(=O)=O)cc1 [Example 17, 4-[1,1,3-Trioxo-7-(3-phenyl-prop-1-ynyl)-3,4-dihydro-1H-1λ^6-benzo[1,2,4]thiadiazin-2-ylmethyl]-benzoic acid]",IC50,[2],5.6 µM
same,IC50,[1]; [9],0.00517 µM
same,IC50,[3],> 30 µM
same,IC50,[4],> 100 µM
same,IC50,[5],> 100 µM
same,IC50,[6],> 30 µM
same,IC50,[7],16 µM
"CN1c2ccc(C#CCc3ccccc3)cc2C(=O)N(Cc2ccc(C(=O)O)cc2)[S+]1[O-] (stereo not shown) [Example 15, 4-[1-Methyl-2,4-dioxo-6-(3-phenyl-prop-1-ynyl)-1,4-dihydro-2H-2λ^4-benzo[1,2,6]thiadiazin-3-ylmethyl]benzoic acid]",IC50,[2],> 10 µM
same,IC50,[1]; [9],0.0104 µM
same,IC50,[3],> 30 µM
same,IC50,[4],> 100 µM
same,IC50,[5],> 30 µM
same,IC50,[6],> 30 µM
same,IC50,[7],24 µM
"N#Cc1ccc(CNC(=O)c2cccc(C#CCn3ccnn3)c2)cc1 [Example 4, N-(4-Cyano-benzyl)-3-(3-[1,2,3]-triazol-1-yl-prop-1-ynyl)-benzamide]",IC50,[1]; [8],100 µM
"CN1C(=O)N(Cc2ccccc2)S(=O)(=O)c2cc(C#CCc3ccccc3)ccc21 [Example 1, 2-Benzyl-4-methyl-1,1-dioxo-7-(3-phenyl-prop-1ynyl)-1,4-dihydro-2H-1l^6-benzo[1,2,4]thiadiazin-3-one]",IC50,[2],> 30 µM
same,melting point,,125 to 127 °C
same,IC50,[1]; [10],2.2 µM
same,IC50,[3],> 100 µM
same,IC50,[4],> 100 µM
same,IC50,[5],> 30 µM
same,IC50,[6],> 100 µM
same,IC50,[7],> 30 µM
"CN1C(=O)N(Cc2ccc(C(=O)O)cc2)S(=O)(=O)c2cc(C#CCc3ccccc3)ccc21 [Example 2, 4-[4-Methyl-1,1,3-trioxo-7-(3-phenyl-prop-1-ynyl)-3,4-dihydro-1H-1l^6-benzo[1,2,4]thiadiazin-2-ylmethyl]-benzoic acid]",IC50,[2],> 10 µM
same,melting point,,208 to 209 °C
same,IC50,[1]; [10],0.0042 µM
same,IC50,[3],> 30 µM
same,IC50,[4],> 30 µM
same,IC50,[5],> 30 µM
same,IC50,[6],> 30 µM
same,IC50,[7],> 30 µM
"CN1c2ccc(C#CCc3ccccc3)cc2C(=O)N(Cc2ccc(C(=O)O)cc2)S1(=O)=O [Example 16, 4-[1-methyl-2,2,4-trioxo-6-(3-phenylprop-1-ynyl)-1,4-dihydro-2H-2λ^6-benzo[1,2,6]-thiadiazin-3-ylmethyl]benzoic acid]",IC50,[2],12 µM
same,IC50,[1]; [9],0.0315 µM
same,IC50,[3],> 30 µM
same,IC50,[4],> 30 µM
same,IC50,[5],> 30 µM
same,IC50,[6],> 30 µM
same,IC50,[7],> 30 µM
"O=C1Nc2ccc(C#CCc3ccccc3)cc2S(=O)(=O)N1Cc1ccccc1 [Example 3, 2-Benzyl-1,1-dioxo-7-(3-phenyl-prop-1-ynyl)-1,4-dihydro-2H-1l^6-benzo[1,2,4]thiadiazin-3-one]",IC50,[2],> 30 µM
same,IC50,[1]; [9],0.12 µM
same,IC50,[3],> 30 µM
same,IC50,[4],> 30 µM
same,IC50,[5],> 100 µM
same,IC50,[6],> 30 µM
same,IC50,[7],> 30 µM
"O=C(O)c1ccc(CN2C(=O)Nc3ccc(C#CCCc4ccccc4)cc3S2(=O)=O)cc1 [Example 19, 4-[1,1,3-Trioxo-7-(4-phenyl-but-1-ynyl)-3,4-dihydro-1H-1λ^6-benzo[1,2,4]thiadiazin-2-ylmethyl]-benzoic acid]",IC50,[1]; [9],0.079 µM
